These results are taken from patent EP0525814A1, “Use of di-tertbutylhydroxyphenyl derivatives for the therapy of inflammatory conditions of the gastrointestinal tract” (BOEHRINGER MANNHEIM GMBH, priority 1991, dated 1993).

In this experiment the test system is Akute Kolitis. In words: Acetic acid-induced acute colitis in rats, morphological evaluation of the mucosa by image analysis. The experiment is classed as in vivo, Ratten. The conditions noted are these: rat, 3 x 200 mg/kg p.o.; for Anteil von Mukosabereichen Schädigungsstufe 0 (ohne Befund) an der Gesamtfläche des untersuchten Darmbereichs / Anteil von Mukosabereichen Schädigungsstufe 1 (Schwellung des Gewebes mit leichter Rötung) an der Gesamtfläche des untersuchten Darmbereichs / Anteil von Mukosabereichen Schädigungsstufe 2 (starke Rötung des Gewebes mit Einblutungen oder ulcerierenden Nekrosen) an der Gesamtfläche des untersuchten Darmbereichs: rectum and parts of distal colon, 3 days after induction with 5% acetic acid, mean ± spread.

Where [1] appears, read: change versus control in words, p<0,01.

Procedure: Beispiel 1 und Probucol wurden in einer Dosierung von 200 mg/kg/d 3 mal oral verabreicht. Die Behandlung wurde einen Tag vor Entzündungsinduktion mit 5% Essigsäure begonnen. […] Das Ausmaß einer entzündlichen Reaktion im Darm wird durch Begutachtung des Mukosa-Zustandes und Klassifizierung nach festgelegten Parametern bestimmt.
Akute Kolitis wurde bei 24 h nüchternen Ratten durch rektale Instillation von 5% Essigsäure (1,5ml/Tier) über eine 8 cm lange Sonde induziert. Die morphologische Auswertung des Mukosazustandes aus dem Rektum und Teilen des distalen Kolons (ca. 8 cm) erfolgte am 3. Tag nach Entzündungsinduktion, nachdem die Tiere getötet worden waren. Beispiel 1 und Probucol wurden in einer Dosierung von 200 mg/kg/d 3 mal p.o. (2,5 ml/kg) verabreicht. Die erste Gabe erfolgte 24 h vor Essigsäure-Applikation. Kontrolltieren wurde das Substanzlösungsmittel (20% DMSO in Öl) verabreicht.
Die morphologische Auswertung erfolgte an einem computergeschützten Bildanalyse-System. Es wurde der Anteil von entzündetem Gewebe an der Gesamtdarmoberfläche bestimmt. Folgende Schädigungsstufen wurden unterschieden: • - Stufe 0 : ohne Befund • - Stufe 1 : Schwellung des Gewebes mit leichter Rötung • - Stufe 2 : starke Rötung des Gewebes mit Einblutungen oder ulcerierenden Nekrosen

`CC(C)(C)c1cc(CCNC(=O)CCc2cc(C(C)(C)C)c(O)c(C(C)(C)C)c2)cc(C(C)(C)C)c1O` [Beispiel 1]: the “Anteil von Mukosabereichen Schädigungsstufe 0 (ohne Befund) an der Gesamtfläche des untersuchten Darmbereichs” value is 17,20 ± 8,93 %, the “Anteil von Mukosabereichen Schädigungsstufe 1 (Schwellung des Gewebes mit leichter Rötung) an der Gesamtfläche des untersuchten Darmbereichs” value is on record as 66,96 ± 8,31 % and the “Anteil von Mukosabereichen Schädigungsstufe 2 (starke Rötung des Gewebes mit Einblutungen oder ulcerierenden Nekrosen) an der Gesamtfläche des untersuchten Darmbereichs” value is given as 15,75 ± 6,24 %. For the same compound, under setting [1], the “nur noch geschwollene Gewebebereiche (Schädigungsstufe 1)” value is given as “Zunahme” and the “stark geschädigte Darmanteile (Schädigungsstufe 2)” value is reported as “deutlicher Abnahme”. For the same compound, the “größere, morphologisch normale Gewebebereiche (Schädigungsstufe 0)” value (result in words, p<0,01 versus control) is “nachweisbar”.

In the case of `CC(C)(Sc1cc(C(C)(C)C)c(O)c(C(C)(C)C)c1)Sc1cc(C(C)(C)C)c(O)c(C(C)(C)C)c1` [Probucol, reference compound], the “Anteil von Mukosabereichen Schädigungsstufe 0 (ohne Befund) an der Gesamtfläche des untersuchten Darmbereichs” value is reported as 0,12 ± 0,09%, the “Anteil von Mukosabereichen Schädigungsstufe 1 (Schwellung des Gewebes mit leichter Rötung) an der Gesamtfläche des untersuchten Darmbereichs” value is given as 52,78 ± 9,36% and the “Anteil von Mukosabereichen Schädigungsstufe 2 (starke Rötung des Gewebes mit Einblutungen oder ulcerierenden Nekrosen) an der Gesamtfläche des untersuchten Darmbereichs” value was 47,19 ± 9,36%. The “Einfluß auf die durch Essigsäure-Applikation hervorgerufenen Mukosaschädigungen” value (result in words) is listed as “keinen Einfluß”.
